Experimental findings from patent US11787785B2 (NOVARTIS AG, priority 2021, dated 2023) are described below.

SMILES strings stand for the structures. Some results are limits rather than exact numbers.

The assay addresses T1, WIZ protein (HiBit-WIZ fusion protein) (Homo sapiens, UniProt O95785+Q96SW2).
T1 construct: expressed in transfected cells
Nature of the assay: Quantification of WIZ protein levels in HiBit tag fusion protein assay (WIZ HiBit assay in 293T cells). Format: cell-based. The settings on record: for Dmax at 25 µM / remaining activity at 25 µM: HEK-293T, 293T cells; for Dmax at 25 µM: 100 − Amax, read-out: % degradation of WIZ (100 − Amax); for remaining activity at 25 µM: DMSO-normalized, curve-fitted percentage of WIZ-HiBit remaining at 25 uM, read-out: WIZ Amax; for DC50: WIZ HiBit assay in 293T cells, 10-point, 5-fold dose response, highest concentration 25 μM, about 18 hours, read-out: WIZ AC50. In outline:
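HiBit-tagged WIZ (N-terminal tag, HSVTK promoter) stably expressed single-copy in 293T cells; 10-point 1:5 compound series, top 25 μM, ~18 h at 37 °C. Lytic HiBit/LgBit luminescence read; Amax = curve-fitted % WIZ-HiBit remaining at 25 μM, DMSO normalized to 100%.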
(The HiBiT peptide binds its large partner to form an active luciferase.)

T1 sequence (O95785 whole entry, the tested form may be a part): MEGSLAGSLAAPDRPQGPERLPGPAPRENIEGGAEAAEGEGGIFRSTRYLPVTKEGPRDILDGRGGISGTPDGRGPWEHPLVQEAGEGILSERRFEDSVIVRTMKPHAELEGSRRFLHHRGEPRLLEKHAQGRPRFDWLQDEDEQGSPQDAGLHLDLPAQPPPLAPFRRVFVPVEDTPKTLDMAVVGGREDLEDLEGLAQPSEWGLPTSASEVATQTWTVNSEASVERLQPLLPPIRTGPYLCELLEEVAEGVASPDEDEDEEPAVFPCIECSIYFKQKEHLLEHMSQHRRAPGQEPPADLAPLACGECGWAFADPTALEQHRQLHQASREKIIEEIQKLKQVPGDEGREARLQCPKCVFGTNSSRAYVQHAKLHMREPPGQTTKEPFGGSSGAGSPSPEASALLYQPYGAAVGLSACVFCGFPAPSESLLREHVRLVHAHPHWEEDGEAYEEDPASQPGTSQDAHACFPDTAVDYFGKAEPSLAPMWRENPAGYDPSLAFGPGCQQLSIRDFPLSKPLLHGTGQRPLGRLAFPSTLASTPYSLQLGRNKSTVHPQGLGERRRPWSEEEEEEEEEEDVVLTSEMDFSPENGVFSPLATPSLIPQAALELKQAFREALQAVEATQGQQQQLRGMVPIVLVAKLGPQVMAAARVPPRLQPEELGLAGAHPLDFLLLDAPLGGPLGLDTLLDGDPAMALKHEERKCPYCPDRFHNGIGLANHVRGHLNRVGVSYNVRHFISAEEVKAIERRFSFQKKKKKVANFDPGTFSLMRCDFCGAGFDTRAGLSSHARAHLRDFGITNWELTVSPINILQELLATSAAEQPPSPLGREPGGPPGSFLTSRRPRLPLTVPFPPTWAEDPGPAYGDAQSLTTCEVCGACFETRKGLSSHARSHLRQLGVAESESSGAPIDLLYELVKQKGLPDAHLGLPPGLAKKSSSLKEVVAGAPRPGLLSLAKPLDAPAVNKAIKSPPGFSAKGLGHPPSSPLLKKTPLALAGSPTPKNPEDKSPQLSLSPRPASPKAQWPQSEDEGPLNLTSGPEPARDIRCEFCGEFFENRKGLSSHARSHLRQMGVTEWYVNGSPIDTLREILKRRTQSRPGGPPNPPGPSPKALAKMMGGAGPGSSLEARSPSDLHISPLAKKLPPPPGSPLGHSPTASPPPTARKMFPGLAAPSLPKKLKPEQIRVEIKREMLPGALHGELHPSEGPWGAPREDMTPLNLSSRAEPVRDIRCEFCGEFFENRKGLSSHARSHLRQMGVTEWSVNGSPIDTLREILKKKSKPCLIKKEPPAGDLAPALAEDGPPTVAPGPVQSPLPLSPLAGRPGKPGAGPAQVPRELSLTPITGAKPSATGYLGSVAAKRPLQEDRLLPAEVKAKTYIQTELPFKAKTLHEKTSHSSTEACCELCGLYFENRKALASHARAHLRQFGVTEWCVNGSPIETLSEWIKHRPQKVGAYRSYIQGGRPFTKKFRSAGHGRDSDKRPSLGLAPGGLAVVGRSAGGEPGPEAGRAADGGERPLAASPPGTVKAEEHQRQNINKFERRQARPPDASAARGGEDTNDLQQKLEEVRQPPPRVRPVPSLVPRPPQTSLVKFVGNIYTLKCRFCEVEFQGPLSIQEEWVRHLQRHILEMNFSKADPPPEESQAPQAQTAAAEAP
T1 sequence (Q96SW2 whole entry, the tested form may be a part): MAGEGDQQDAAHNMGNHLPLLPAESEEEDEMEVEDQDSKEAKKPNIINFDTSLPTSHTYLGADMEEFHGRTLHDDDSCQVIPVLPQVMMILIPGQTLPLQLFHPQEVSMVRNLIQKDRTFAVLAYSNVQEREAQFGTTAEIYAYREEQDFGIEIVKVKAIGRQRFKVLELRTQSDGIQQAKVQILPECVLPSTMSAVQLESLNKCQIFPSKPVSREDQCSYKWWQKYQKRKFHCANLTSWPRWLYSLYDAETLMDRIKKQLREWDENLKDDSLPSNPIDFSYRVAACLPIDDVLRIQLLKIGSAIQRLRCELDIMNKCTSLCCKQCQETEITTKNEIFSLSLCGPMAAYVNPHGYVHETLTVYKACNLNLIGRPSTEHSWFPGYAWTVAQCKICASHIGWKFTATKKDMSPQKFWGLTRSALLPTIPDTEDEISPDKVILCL
T1 sequence (Q16531 whole entry partner, the tested form may be a part): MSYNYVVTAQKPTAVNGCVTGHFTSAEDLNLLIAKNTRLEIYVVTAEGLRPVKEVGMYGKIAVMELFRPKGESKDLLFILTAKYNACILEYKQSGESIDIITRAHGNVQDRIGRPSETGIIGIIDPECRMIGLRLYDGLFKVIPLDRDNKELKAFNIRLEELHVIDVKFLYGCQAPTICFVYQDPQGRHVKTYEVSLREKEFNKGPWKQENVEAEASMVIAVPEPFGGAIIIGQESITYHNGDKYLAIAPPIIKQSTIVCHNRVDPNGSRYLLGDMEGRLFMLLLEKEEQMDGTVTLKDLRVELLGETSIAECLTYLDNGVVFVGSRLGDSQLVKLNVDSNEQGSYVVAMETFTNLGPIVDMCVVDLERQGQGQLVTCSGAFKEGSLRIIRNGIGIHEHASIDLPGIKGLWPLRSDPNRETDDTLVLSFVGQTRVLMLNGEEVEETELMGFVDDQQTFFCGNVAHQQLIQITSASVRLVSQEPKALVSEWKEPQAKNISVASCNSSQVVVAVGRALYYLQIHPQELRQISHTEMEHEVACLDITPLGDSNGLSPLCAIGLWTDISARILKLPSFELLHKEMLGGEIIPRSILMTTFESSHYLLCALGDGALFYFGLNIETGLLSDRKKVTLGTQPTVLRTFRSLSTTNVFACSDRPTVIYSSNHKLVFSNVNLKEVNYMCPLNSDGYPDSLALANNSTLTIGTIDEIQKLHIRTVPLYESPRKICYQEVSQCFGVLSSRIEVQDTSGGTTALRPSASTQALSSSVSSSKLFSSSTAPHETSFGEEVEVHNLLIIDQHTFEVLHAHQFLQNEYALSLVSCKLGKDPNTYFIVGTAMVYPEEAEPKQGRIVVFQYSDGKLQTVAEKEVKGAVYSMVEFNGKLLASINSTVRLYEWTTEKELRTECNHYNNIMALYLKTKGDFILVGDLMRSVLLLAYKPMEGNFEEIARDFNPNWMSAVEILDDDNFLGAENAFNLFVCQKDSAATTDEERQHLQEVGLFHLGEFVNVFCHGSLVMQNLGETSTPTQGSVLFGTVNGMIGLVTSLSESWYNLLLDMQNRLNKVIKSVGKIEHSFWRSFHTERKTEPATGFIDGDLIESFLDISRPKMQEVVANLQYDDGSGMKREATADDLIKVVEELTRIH

As for `C[C@H]1CN(Cc2ccn3ncc(N4CCC(=O)NC4=O)c3c2)CCN1CC1CCCCCC1` [Example 198, (S)-1-(5-((4-(cycloheptylmethyl)-3-methylpiperazin-1-yl)methyl)pyrazolo[1,5-a]pyridin-3-yl)dihydropyrimidine-2,4(1H,3H)-dione], the Dmax at 25 µM amounted to 87%, the remaining activity at 25 µM turned out to be 13% and the DC50 is 9 nM.
On the same counts, the results for `C[C@H]1C[C@H](Cc2ccn3ncc(N4CCC(=O)NC4=O)c3c2)CCN1CC(F)(F)F` [Example 275, 1-(5-(((2S,4R)-2-methyl-1-(2,2,2-trifluoroethyl)piperidin-4-yl)methyl)pyrazolo[1,5-a]pyridin-3-yl)dihydropyrimidine-2,4(1H,3H)-dione] are 79%, 21% and 20 nM.
With `Cc1cn(-c2cnn3ccc(CN4CCN(CC(C)C)[C@@H](C)C4)cc23)c(=O)[nH]c1=O` [Example 359, (S)-1-(5-((4-isobutyl-3-methylpiperazin-1-yl)methyl)pyrazolo[1,5-a]pyridin-3-yl)-5-methylpyrimidine-2,4(1H,3H)-dione], the Dmax at 25 µM turned out to be 89%, the remaining activity at 25 µM is 11% and the DC50 turned out to be 365 nM.
On the same counts, the results for `O=C1CCN(c2cnn3ccc(CC4CCNCC4)cc23)C(=O)N1` [Example 108, 1-(5-(piperidin-4-ylmethyl)pyrazolo[1,5-a]pyridin-3-yl)dihydropyrimidine-2,4(1H,3H)-dione] are 34%, 66% and 1340 nM.
For `O=C1CCN(c2cnn3ccc(CC4CN(CC5CCCCC5)C4)cc23)C(=O)N1` [Example 135, 1-(5-((1-(cyclohexylmethyl)azetidin-3-yl)methyl)pyrazolo[1,5-a]pyridin-3-yl)dihydropyrimidine-2,4(1H,3H)-dione], the Dmax at 25 µM was determined as 26%, the remaining activity at 25 µM was determined as 74% and the DC50 came to 2100 nM.
On the same counts, the results for `C[C@@H]1CN(CC2CCOCC2)CCN1Cc1ccn2ncc(N3CCC(=O)NC3=O)c2c1` [Example 219] are 75%, 25% and 212 nM.
The corresponding values for `C[C@H]1C[C@H](Cc2ccn3ncc(N4CCC(=O)NC4=O)c3c2)CCN1C(=O)N(C)C` [Example 294] are 81%, 19% and 18 nM.
On to `O=C1CCN(c2cnn3ccc(CC4CCN(Cc5ccccc5F)CC4)cc23)C(=O)N1` [Example 38, 1-(5-((1-(2-fluorobenzyl)piperidin-4-yl)methyl)pyrazolo[1,5-a]pyridin-3-yl)dihydropyrimidine-2,4(1H,3H)-dione], for which the Dmax at 25 µM is 71%, the remaining activity at 25 µM was determined as 29% and the DC50 turned out to be 112 nM.
The corresponding values for `C[C@H]1C[C@H](Cc2ccn3ncc(N4CCC(=O)NC4=O)c3c2)CCN1CC1CCCCC1` [Example 143] are 88%, 12% and 4 nM.
As for `CN1CCC(Cc2ccn3ncc(N4CCC(=O)NC4=O)c3c2)CC1` [Example 49, 1-(5-((1-methylpiperidin-4-yl)methyl)pyrazolo[1,5-a]pyridin-3-yl)dihydropyrimidine-2,4(1H,3H)-dione], the Dmax at 25 µM was 66%, the remaining activity at 25 µM came out at 34% and the DC50 is 2790 nM.
Consider `O=C1CCN(c2cnn3ccc(CN4CCN(CC5CCCCCC5)CC4)cc23)C(=O)N1` [Example 158], for which the Dmax at 25 µM was 82%, the remaining activity at 25 µM turned out to be 18% and the DC50 was 25 nM.
On the same counts, the results for `O=C1CCN(c2cnn3ccc(CN4C[C@@H]5C[C@H]4CN5Cc4cccnc4)cc23)C(=O)N1` [Example 237, 1-(5-(((1S,4S)-5-(pyridin-3-ylmethyl)-2,5-diazabicyclo[2.2.1]heptan-2-yl)methyl)pyrazolo[1,5-a]pyridin-3-yl)dihydropyrimidine-2,4(1H,3H)-dione] are 6%, 94% and greater than 25000 nM.
In the case of `O=C1CCN(c2cnn3ccc(CC4CCN(S(=O)(=O)CC5CC5)CC4)cc23)C(=O)N1` [Example 84], the Dmax at 25 µM stood at 87%, the remaining activity at 25 µM stood at 13% and the DC50 came to 55 nM.
As for `O=C1CCN(c2cnn3ccc(CN4CCN(CC56CC7CC(CC(C7)C5)C6)CC4)cc23)C(=O)N1` [Example 194, 1-(5-((4-(((3r,5r,7r)-adamantan-1-yl)methyl)piperazin-1-yl)methyl)pyrazolo[1,5-a]pyridin-3-yl)dihydropyrimidine-2,4(1H,3H)-dione], the Dmax at 25 µM was 89%, the remaining activity at 25 µM was 11% and the DC50 came out at 3 nM.
`CC(C)CN1CCCN(Cc2ccn3ncc(N4CCC(=O)NC4=O)c3c2)CC1` [Example 250, 1-(5-((4-isobutyl-1,4-diazepan-1-yl)methyl)pyrazolo[1,5-a]pyridin-3-yl)dihydropyrimidine-2,4(1H,3H)-dione]: the Dmax at 25 µM amounted to 41%, the remaining activity at 25 µM amounted to 59% and the DC50 is 1350 nM.
On the same counts, the results for `C[C@H]1CN(Cc2ccn3ncc(N4CCC(=O)NC4=O)c3c2)CCN1C1CCOCC1` [Example 330] are 82%, 18% and 41 nM.
On the same counts, the results for `C[C@H]1CN(Cc2ccn3ncc(N4CCC(=O)NC4=O)c3c2)CCN1C1CC2(C1)CN(C)C2` [Example 336, (S)-1-(5-((3-methyl-4-(2-methyl-2-azaspiro[3.3]heptan-6-yl)piperazin-1-yl)methyl)pyrazolo[1,5-a]pyridin-3-yl)dihydropyrimidine-2,4(1H,3H)-dione] are 76%, 24% and 12000 nM.
On the same counts, the results for `O=C1CCN(c2cnn3ccc(CC4CCN(CC5CCC5)C4)cc23)C(=O)N1` (stereo not drawn) [Example 130] are 36%, 64% and 1320 nM.
On to `O=C1CCN(c2cnn3ccc(CC4CCN(CC(F)(F)C(F)F)CC4)cc23)C(=O)N1` [Example 31, 1-(5-((1-(2,2,3,3-tetrafluoropropyl)piperidin-4-yl)methyl)pyrazolo[1,5-a]pyridin-3-yl)dihydropyrimidine-2,4(1H,3H)-dione], for which the Dmax at 25 µM came out at 74%, the remaining activity at 25 µM was found to be 26% and the DC50 is 27 nM.
The corresponding values for `O=C1CCN(c2cnn3ccc(CC4CCN(CC5CCC(F)(F)CC5)CC4)cc23)C(=O)N1` [Example 4, 1-(5-((1-((4,4-difluorocyclohexyl)methyl)piperidin-4-yl)methyl)pyrazolo[1,5-a]pyridin-3-yl)dihydropyrimidine-2,4(1H,3H)-dione] are 90%, 10% and 5 nM.
The corresponding values for `C[C@@H]1CC(CN2CCC(Cc3ccn4ncc(N5CCC(=O)NC5=O)c4c3)CC2)C[C@H](C)O1` (stereo partly drawn) [Example 113] are 88%, 12% and 4 nM.
The corresponding values for `CCCN1CCN(Cc2ccn3ncc(N4CCC(=O)NC4=O)c3c2)CC1` [Example 163] are 76%, 24% and 561 nM.
